IC50 data for 24 molecules are collected here from patent publication US11987588B2, “Modulators of the beta-3 adrenergic receptor useful for the treatment or prevention of heart failure and disorders related thereto” (Arena Pharmaceuticals, Inc., priority 2017, dated 2024).

pIC50: −log10 of the molar value.

In this assay the target is Beta-3 Adrenergic Receptor (Homo sapiens (Human), UniProt P13945). Kind of assay: Homogeneous Time-Resolved Fluorescence (HTRF) cAMP antagonist assay, IC50 determination. The format is cell-based. As to conditions: CHO-K1 cells stably expressing recombinant receptor, isoproterenol at EC90. Summed up:
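In this functional readout, recombinant CHO-K1 cells received compound, then isoproterenol at its EC90. After 1 h at room temperature, cAMP levels were determined by HTRF using an on-plate standard curve, and IC50 values were fitted.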
Background: Time-resolved FRET reads energy transfer from a long-lived donor to a nearby acceptor.

Sequence of Beta-3 Adrenergic Receptor (P13945 whole entry, species assumed): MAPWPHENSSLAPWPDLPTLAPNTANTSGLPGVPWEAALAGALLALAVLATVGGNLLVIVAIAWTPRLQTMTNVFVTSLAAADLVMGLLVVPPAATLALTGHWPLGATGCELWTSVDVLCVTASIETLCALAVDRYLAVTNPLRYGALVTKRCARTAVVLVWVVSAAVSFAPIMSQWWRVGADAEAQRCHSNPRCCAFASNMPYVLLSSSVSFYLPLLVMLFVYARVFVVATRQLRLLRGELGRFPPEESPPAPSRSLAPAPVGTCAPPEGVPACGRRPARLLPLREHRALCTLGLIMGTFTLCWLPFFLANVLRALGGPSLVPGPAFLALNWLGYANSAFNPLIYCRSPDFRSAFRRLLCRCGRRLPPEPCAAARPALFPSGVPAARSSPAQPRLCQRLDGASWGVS

What is called pIC50 is the IC50 on a negative log10 scale, so that one unit is a factor of ten. For `CNS(=O)(=O)c1cccc(OC[C@@H](O)CN[C@H]2COC3(CCN(S(=O)(=O)c4cnc5[nH]cnc5c4C)CC3)C2)c1` [Compound 519, 3-((S)-2-hydroxy-3-((R)-8-(7-methyl-3H-imidazo[4,5-b]pyridin-6-ylsulfonyl)-1-oxa-8-azaspiro[4.5]decan-3-ylamino)propoxy)-N-methylbenzenesulfonamide], the pIC50 was 7.16.

Regarding `CCN1CCOc2ncc(S(=O)(=O)N3CCC4(CC3)CC(NC[C@H](O)COc3cccc(S(=O)(=O)NC)c3)CO4)cc21` (stereo partly drawn) [Compound 423, 3-((2S)-3-(8-(1-ethyl-2,3-dihydro-1H-pyrido[2,3-b][1,4]oxazin-7-ylsulfonyl)-1-oxa-8-azaspiro[4.5]decan-3-ylamino)-2-hydroxypropoxy)-N-methylbenzenesulfonamide], the pIC50 is 7.90.

`CNS(=O)(=O)c1cccc(OC[C@@H](O)CN[C@H]2COC3(CCN(S(=O)(=O)c4cn(C)c5ccccc5c4=O)CC3)C2)c1` [Compound 494, 3-((S)-2-hydroxy-3-((R)-8-(1-methyl-4-oxo-1,4-dihydroquinolin-3-ylsulfonyl)-1-oxa-8-azaspiro[4.5]decan-3-ylamino)propoxy)-N-methylbenzenesulfonamide]: the pIC50 is 7.20.

On to `CNS(=O)(=O)c1cccc(OC[C@@H](O)CN[C@H]2COC3(CCN(S(=O)(=O)c4cnc5c(c4)N(CCOCc4ccccc4)CCO5)CC3)C2)c1` [Compound 462, 3-((S)-3-((R)-8-(1-(2-(benzyloxy)ethyl)-2,3-dihydro-1H-pyrido[2,3-b][1,4]oxazin-7-ylsulfonyl)-1-oxa-8-azaspiro[4.5]decan-3-ylamino)-2-hydroxypropoxy)-N-methylbenzenesulfonamide], for which the pIC50 is 6.97.

As to `CCNS(=O)(=O)c1cccc(OC[C@@H](O)CNC2COC3(CCN(S(=O)(=O)c4ccc5c(c4)CCCC5)CC3)C2)c1` (stereo partly drawn) [Compound 231, N-ethyl-3-((2S)-2-hydroxy-3-(8-(5,6,7,8-tetrahydronaphthalen-2-ylsulfonyl)-1-oxa-8-azaspiro[4.5]decan-3-ylamino)propoxy)benzenesulfonamide], the pIC50 is 7.14.

As to `CNS(=O)(=O)c1cccc(OC[C@@H](O)CNC2COC3(CCN(S(=O)(=O)c4cc(-c5ccc(CN)cc5)cc(C(F)(F)F)c4)CC3)C2)c1` (stereo partly drawn) [Compound 367, 3-((2S)-3-(8-(4′-(aminomethyl)-5-(trifluoromethyl)biphenyl-3-ylsulfonyl)-1-oxa-8-azaspiro[4.5]decan-3-ylamino)-2-hydroxypropoxy)-N-methylbenzenesulfonamide], the pIC50 is 7.51.

Regarding `CNS(=O)(=O)c1cccc(OC[C@@H](O)CNC2COC3(CCN(S(=O)(=O)c4ccc5c(c4)CCCO5)CC3)C2)c1` (stereo partly drawn) [Compound 41, 3-((2S)-3-(8-(chroman-6-ylsulfonyl)-1-oxa-8-azaspiro[4.5]decan-3-ylamino)-2-hydroxypropoxy)-N-methylbenzenesulfonamide], the pIC50 was 8.17.

Regarding `CCn1cc(-c2cccc(S(=O)(=O)N3CCC4(CC3)CC(NC[C@H](O)COc3cccc(S(=O)(=O)NC)c3)CO4)c2)cn1` (stereo partly drawn) [Compound 69, 3-((2S)-3-(8-(3-(1-ethyl-1H-pyrazol-4-yl)phenylsulfonyl)-1-oxa-8-azaspiro[4.5]decan-3-ylamino)-2-hydroxypropoxy)-N-methylbenzenesulfonamide], the pIC50 was 7.68.

With `CNS(=O)(=O)c1cccc(OC[C@@H](O)CN[C@H]2COC3(CCN(S(=O)(=O)c4cnc5ccccc5c4)CC3)C2)c1` [Compound 336, 3-((S)-2-hydroxy-3-((R)-8-(quinolin-3-ylsulfonyl)-1-oxa-8-azaspiro[4.5]decan-3-ylamino)propoxy)-N-methylbenzenesulfonamide], the pIC50 was 7.82.

`CNS(=O)(=O)c1cccc(OC[C@@H](O)CN[C@H]2COC3(CCN(S(=O)(=O)c4cnc5c(c4)N(C(C)C)CCO5)CC3)C2)c1` [Compound 469, 3-((S)-2-hydroxy-3-((R)-8-(1-isopropyl-2,3-dihydro-1H-pyrido[2,3-b][1,4]oxazin-7-ylsulfonyl)-1-oxa-8-azaspiro[4.5]decan-3-ylamino)propoxy)-N-methylbenzenesulfonamide]: the pIC50 is 7.50.

Consider `CNS(=O)(=O)c1cccc(OC[C@@H](O)CNC2COC3(CCN(S(=O)(=O)c4cccc(-c5cccc(C(=O)O)c5)c4)CC3)C2)c1` (stereo partly drawn) [Compound 112, 3′-(3-((S)-2-hydroxy-3-(3-(N-methylsulfamoyl)phenoxy)propylamino)-1-oxa-8-azaspiro[4.5]decan-8-ylsulfonyl)biphenyl-3-carboxylic acid], for which the pIC50 was 6.62.

As for `CNS(=O)(=O)c1cccc(OC[C@@H](O)CNC2COC3(CCN(S(=O)(=O)c4cccc(-c5ccc(CN)cc5)c4)CC3)C2)c1` (stereo partly drawn) [Compound 79, 3-((2S)-3-(8-(4′-(aminomethyl)biphenyl-3-ylsulfonyl)-1-oxa-8-azaspiro[4.5]decan-3-ylamino)-2-hydroxypropoxy)-N-methylbenzenesulfonamide], the negative logarithm of the IC50 (pIC50) is 8.15.

In the case of `CCn1cc(S(=O)(=O)N2CCC3(CC2)C[C@@H](NC[C@H](O)COc2cccc(S(=O)(=O)NC)c2)CO3)c(=O)c2cc(C)ccc21` [Compound 535, 3-((S)-3-((R)-8-(1-ethyl-6-methyl-4-oxo-1,4-dihydroquinolin-3-ylsulfonyl)-1-oxa-8-azaspiro[4.5]decan-3-ylamino)-2-hydroxypropoxy)-N-methylbenzenesulfonamide], the pIC50 is 7.36.

As for `CCOc1nc2c(cc1S(=O)(=O)N1CCC3(CC1)CC(NC[C@H](O)COc1cccc(S(=O)(=O)NC)c1)CO3)N(C)CCO2` (stereo partly drawn) [Compound 401, 3-((2S)-3-(8-(6-ethoxy-1-methyl-2,3-dihydro-1H-pyrido[2,3-b][1,4]oxazin-7-ylsulfonyl)-1-oxa-8-azaspiro[4.5]decan-3-ylamino)-2-hydroxypropoxy)-N-methylbenzenesulfonamide], the negative-log IC50 (pIC50) is 7.60.

With `CNS(=O)(=O)c1cccc(OC[C@@H](O)CN[C@H]2COC3(CCN(S(=O)(=O)c4cnc5[nH]nc(C)c5c4)CC3)C2)c1` [Compound 497, 3-((S)-2-hydroxy-3-((R)-8-(3-methyl-1H-pyrazolo[3,4-b]pyridin-5-ylsulfonyl)-1-oxa-8-azaspiro[4.5]decan-3-ylamino)propoxy)-N-methylbenzenesulfonamide], the negative logarithm of the IC50 (pIC50) is 7.79.

For `CCNS(=O)(=O)c1cccc(OC[C@@H](O)CNC2COC3(CCN(S(=O)(=O)c4c(C)noc4C)CC3)C2)c1` (stereo partly drawn) [Compound 232, 3-((2S)-3-(8-(3,5-dimethylisoxazol-4-ylsulfonyl)-1-oxa-8-azaspiro[4.5]decan-3-ylamino)-2-hydroxypropoxy)-N-ethylbenzenesulfonamide], the pIC50 was 6.73.

On to `CNS(=O)(=O)c1cccc(OC[C@@H](O)CN[C@H]2COC3(CCN(S(=O)(=O)c4ccc(Br)c(C)c4)CC3)C2)c1` [Compound 271, 3-((S)-3-((R)-8-(4-bromo-3-methylphenylsulfonyl)-1-oxa-8-azaspiro[4.5]decan-3-ylamino)-2-hydroxypropoxy)-N-methylbenzenesulfonamide], for which the pIC50 was 8.12.

As for `CCOc1ccc(-c2ccc(CN)cc2)cc1S(=O)(=O)N1CCC2(CC1)C[C@@H](NC[C@H](O)COc1cccc(S(N)(=O)=O)c1)CO2` [Compound 567, 3-((S)-3-((R)-8-(4′-(aminomethyl)-4-ethoxybiphenyl-3-ylsulfonyl)-1-oxa-8-azaspiro[4.5]decan-3-ylamino)-2-hydroxypropoxy)benzenesulfonamide], the pIC50 was 7.75.

For the molecule `COc1ccc(S(=O)(=O)N2CCC3(CC2)CC(NC[C@H](O)COc2cccc(S(=O)(=O)NCCCN(C)C)c2)CO3)cc1C` (stereo partly drawn) [Compound 308, N-(3-(dimethylamino)propyl)-3-((2S)-2-hydroxy-3-(8-(4-methoxy-3-methylphenylsulfonyl)-1-oxa-8-azaspiro[4.5]decan-3-ylamino)propoxy)benzenesulfonamide], the negative-log IC50 (pIC50) is 5.74.

With `C[C@@H](CO)NS(=O)(=O)c1cccc(OC[C@@H](O)CNC2COC3(CCN(S(=O)(=O)c4ccc5ccccc5c4)CC3)C2)c1` (stereo partly drawn) [Compound 48, 3-((2S)-2-hydroxy-3-(8-(naphthalen-2-ylsulfonyl)-1-oxa-8-azaspiro[4.5]decan-3-ylamino)propoxy)-N—((S)-1-hydroxypropan-2-yl)benzenesulfonamide], the pIC50 is 6.88.

In the case of `CNS(=O)(=O)c1cccc(OC[C@@H](O)CNC2COC3(CCN(S(=O)(=O)c4ccc5cn[nH]c5c4)CC3)C2)c1` (stereo partly drawn) [Compound 328, 3-((2S)-3-(8-(1H-indazol-6-ylsulfonyl)-1-oxa-8-azaspiro[4.5]decan-3-ylamino)-2-hydroxypropoxy)-N-methylbenzenesulfonamide], the pIC50 is 7.43.

With `CNS(=O)(=O)c1cccc(OC[C@@H](O)CN[C@H]2COC3(CCN(S(=O)(=O)c4cccc(-c5ccc(CC#N)cc5)c4)CC3)C2)c1` [Compound 294, 3-((S)-3-((R)-8-(4′-(cyanomethyl)biphenyl-3-ylsulfonyl)-1-oxa-8-azaspiro[4.5]decan-3-ylamino)-2-hydroxypropoxy)-N-methylbenzenesulfonamide], the pIC50 is 7.25.

Consider `CNS(=O)(=O)c1cccc(OC[C@@H](O)CN[C@@H]2COC3(CCN(S(=O)(=O)c4cc(-c5ccc(CN)cc5)ccc4OC(F)(F)F)CC3)C2)c1` [Compound 415, 3-((S)-3-((S)-8-(4′-(aminomethyl)-4-(trifluoromethoxy)biphenyl-3-ylsulfonyl)-1-oxa-8-azaspiro[4.5]decan-3-ylamino)-2-hydroxypropoxy)-N-methylbenzenesulfonamide], for which the pIC50 is 7.71.

Take `NS(=O)(=O)c1cccc(OC[C@@H](O)CN[C@H]2COC3(CCN(S(=O)(=O)c4cccc(Cl)c4)CC3)C2)c1` [Compound 591, 3-((S)-3-((R)-8-(3-chlorophenylsulfonyl)-1-oxa-8-azaspiro[4.5]decan-3-ylamino)-2-hydroxypropoxy)benzenesulfonamide]: the pIC50 was 6.83.
